Series [1] in a line: ongoing first phase 1 trial of Compound A (pharmacokinetics). Further details: species or system patients. The note with it: human, in vivo, oral. The text has this: This schedule (C) includes 11 dosing days in a 3-week cycle.
Details of series [2]: species or system patients. The note with it: human, in vivo. The method, then:
If deemed safe, then dose escalation to dose intensities at and above that given in the 3-4 schedule at 270 mg/day will be performed. For safety reasons, the first cohorts of patients enrolled in schedules C, D, E and F will be treated with lower doses (dose level 1: 14% to 37% of dose intensity of 3-4 schedule at 270 mg). Then in the subsequent cohorts, the dose will be escalated by 50%-100%.

Results on one molecule are retold here after patent US20140357620A1, “METHOD FOR ADMINISTRATION OF A GAMMA SECRETASE INHIBITOR” (Hoffmann-La Roche Inc., priority 2011, published 2014).

Like-named read-outs stand apart in the source and are kept apart here.

The half-life is the time in which the quantity being followed falls by half.

Turning to `CC(C)(C(=O)NCC(F)(F)C(F)(F)F)C(=O)N[C@@H]1C(=O)Nc2ccccc2-c2ccccc21` [Compound A, 2,2-dimethyl-N-((S)-6-oxo-6,7-dihydro-5H-dibenzo[b,d]azepin-7-yl)-N′-(2,2,3,3,3-pentafluoro-propyl)-malonamide], the half-life in series [1] (mean, read-out: mean terminal half-life (converted)) is 42.2 h; in series [1] (range, read-out: terminal half-life (range)) it was 10 to 93 h. For the same molecule, the “highest safe dose tested so far” value in series [2] is 270 mg/day.
